Measurements taken from patent US12714721B2, “Methods of treatment of a cytokine storm” (Loma Linda University Health, priority 2020, dated 2026).
Entries after “also recorded” stand apart in the source; their conditions may differ.

Key:
[1] = system: LPS induced sepsis and subsequent AKI; experiment: Renal function assessment: serum creatinine in LPS induced AKI; assay type: in vivo, mouse
Protocol: (§1) Experimental Design for IGF-1 and BTP-2 studies—The animal experiments involved B6 mice between 5-8 weeks of age. Most experiments involved five groups of animals: (1) healthy, (2) LPS untreated (LPS-No Tx), (3) IGF-I in vivo gene therapy one day before LPS injection (LPS+IGF-1), (4) BTP-2 16 mg/kg i.p. at the start of the study and the (5) combined therapy with IGF-I and BTP-2 (LPS-IGF-1+BTP-2). For the survival experiment, a lethal dose of LPS (25 mg/kg) was used and all of the untreated animals died by 72 hours. In the other experiments, a sublethal dose of LPS (20 mg/kg) was used.
(§2) LPS induced sepsis and subsequent AKI—Female C57BL/6 mice received a sublethal or lethal dose of LPS from E. coli (0127: B8 strain, Sigma Aldrich, St. Louis, MO, USA) in a concentration of 20 or 25 mg/kg body weight administrated in sterile PBS by intraperitoneal injection.
(§3) Treatment—In a preventive therapeutic strategy, some of the mice received an intramuscular injection of Lenti-IGF-1 24 hours before LPS injection; whereas, the calcium signaling blocker BTP-2 (16 mg/kg, Cayman Chemical) was administrated 1 hour before LPS injection. Some of the animals received a combination of Lenti-IGF-1 and BTP-2. Control group mice were injected with an equal volume of PBS.
[…] Serum creatinine (CREA) were detected by Creatinine Assay Kit (Cayman Chemicals).

kidneys = experiment: Vascular leakage permeability assay (Evans blue dye), kidney; assay type: in vivo, mouse; conditions: day 1 (FIG. 5A)
Protocol: as §1
LPS induced sepsis and subsequent AKI—Female C57BL/6 mice received a sublethal or lethal dose of LPS from E. coli (0127: B8 strain, Sigma Aldrich, St. Louis, MO, USA) in a concentration of 20 or 25 mg/kg body weight administrated in sterile PBS by intraperitoneal injection. […]
Vascular leakage permeability assay—Evans blue dye (EBD) was dissolved in a 0.9% saline solution at a concentration of 5 mg/mL and injected to the mouse tail vein (50 mg/kg, i.v.). […] The absorbance of the supernatants was measured at 620 and 740 nm using a dual-wave ELISA plate reader.

kidney = experiment: Renal histology (CD31 and α-SMA staining, PAS staining, tubular injury score); assay type: in vivo, mouse; conditions: for PECAM (CD-31) staining: renal sections (FIGS. 4A-4E); for α-SMA staining: renal sections (FIGS. 4F-4J)
Protocol: as §1, §2, §3
Renal Histology—After sacrificing the mice, one part of the kidney was immediately cut, fixed in a 10% neutral buffered formalin solution, embedded in paraffin, and used for histopathological examination. 10-micrometer-thick sections were cut, deparaffinized, and hydrated. All renal serial sections were incubated at 4° C. overnight with one of two antibodies; rabbit polyclonal antibody against PECAM (CD31) (Santa Cruz, MA) or rabbit polyclonal antibody against α-SMA (Abcam, MA). After washing with TBST, biotinylated goat anti-rabbit IgG (1:200, Vector Labs, Burlingame, CA) were applied to the sections for 30 min at room temperature. Sections then were incubated with Streptavidin-HRP (Vector Labs, Burlingame, CA) for 30 min at room temperature. Diaminobenzidine (DAB; Vector Labs, Burlingame, CA) was used as the chromogen and hematoxylin as the counterstain. One part of the kidney was stained with periodic acid Schiff (PAS) stain. The PAS stained sections were examined for renal morphology in an automated fashion by quantification of a glycogen specific color in the kidney tissue using ImageJ (National Institutes of Health, Bethesda, MD, USA). A minimum of 10 fields for each kidney slide were examined and scored for pathological injury. […] The average histological score for each sample was calculated. The images were captured with an Olympus BX51 microscope, 40× magnification. (Olympus, Center Valley, PA).

lung = experiment: Lung immunocytochemistry (CD31, α-SMA); assay type: in vivo, mouse; conditions: lung sections (FIG. 14A)
Protocol: Acute Lung Injury Induced by LPS—Female C57BL/6 mice received a sublethal or lethal dose of LPS from Escherichia coli (0127: B8 strain, Sigma Aldrich, St. Louis, MO, USA). LPS in sterile PBS was administered intraperitoneally at 20- or 25-mg/kg body weight.
Treatment for Lung Studies-Lenti-IGF-I was administered intramuscularly 24 h before LPS injection. The TRP and ORAI calcium channel blocker BTP-2 (YM-58483 16 mg/kg, Cayman Chemical, Ann Arbor, MI, USA) was given IP 1 h before LPS injection. Some of the animals received a combination of lenti-IGF-I and BTP-2. Mice in control groups were injected with an equal volume of PBS.
Lung Immunocytochemistry—After the mice were sacrificed, one part of the lung was immediately cut, fixed in a 10% neutral-buffered formalin solution, embedded in paraffin, and used for histopathological examination. Ten-micrometer-thick sections were cut, deparaffinized, and hydrated. All lung serial sections were incubated at 4° C. overnight with one of two antibodies: rabbit polyclonal antibody against PECAM (CD31) (Santa Cruz Biotechnology, Dallas, TX, USA) or rabbit polyclonal antibody against α-SMA (Abcam, Cambridge, MA, USA). After washing, biotinylated goat anti-rabbit IgG (1:200, Vector Labs, Burlingame, CA, USA) were applied to the sections for 30 min at room temperature. […]

[2] = Serum IGF-I in LPS-treated mice after IGF-I in vivo gene therapy; set-up: species or system mouse; conditions: LPS 20 mg/kg i.p., 7-day study, IGF-I gene therapy i.m. one day prior to LPS
Protocol: AKI inflammation was associated with a decrease in serum IGF-I. This deficiency was rescued by expression of IGF-1. An in vivo gene therapy approach was utilized. A lentiviral vector engineered to express IGF-I was injected into skeletal muscle of the mice. Constant IGF-I production was designed because IGF binding protein 3, which normally binds to and stabilizes IGF-1 in serum, is expected to decrease. This decrease is due to liver growth receptor depression and therefore the free IGF-I, being a small molecule, is excreted in the urine. By using in vivo gene therapy approach, the free IGF-I is available to the sites of injury in the kidney.
In this 7-day study, there was a marked drop in serum IGF-I from 337.5 to 85 ng/mL (p<0.001), as a consequence of LPS therapy (20 mg/kg body weight). […] Under normal conditions, IGF-I circulates bound to IGFBP3. However, under the conditions of LPS administration, IGFBP3 would be expected to be low. Consequently, IGF-1 produced by muscle should circulate as free IGF-I, which would be readily accessible through the remaining intact vasculature to the injured kidney.
Experimental Design for IGF-1 and BTP-2 studies—The animal experiments involved B6 mice between 5-8 weeks of age. […]

[3] = at 48 hours after LPS (FIG. 6A)

Question: For `Cc1nnsc1C(=O)Nc1ccc(-n2nc(C(F)(F)F)cc2C(F)(F)F)cc1` [BTP-2, 3,5-bis(trifluoromethyl)pyrazole derivative], which serum creatinine [1, 3] is on record?
Answer: normalized

Question: And the “vascular leakage (extravasation of Evans blue dye)” value (kidneys)?
Answer: more so

Question: What about the “PECAM (CD-31) staining” value (kidney) of the same molecule?
Answer: improved

Question: And the α-SMA staining (kidney)?
Answer: improved

Question: What about the “immunocytochemical evaluation of CD31 (% of the area of CD31 staining)” value (lung) of the same molecule?
Answer: significantly improved

Question: Which “serum IGF-I” value [2] does the source give for “IGF-I: Insulin-like Growth Factor, delivered by a lentiviral vector engineered to express IGF-I injected into skeletal muscle” here?
Answer: normalized the low serum IGF-I; also recorded: rescued this deficiency

Question: And the “serum IGF-I” value ([2]; listed as Lenti-IGF-I)?
Answer: rescued the serum IGF-I deficiency

Question: What about the serum creatinine ([1]; LPS i.p. day 0, measured 7 days later, IGF-I gene therapy one day prior to LPS (FIG. 1B)) of the same molecule?
Answer: normalized

Question: What about the serum creatinine [1, 3] of the same molecule?
Answer: improved

Question: And the “vascular leakage (extravasation of Evans blue dye)” value (kidneys)?
Answer: improved

Question: And the “PECAM (CD-31) staining” value (kidney)?
Answer: improved

Question: And the α-SMA staining (kidney)?
Answer: improved

Question: What about the “immunocytochemical evaluation of CD31 (% of the area of CD31 staining)” value (lung) of the same molecule?
Answer: significantly improved
